Assay results published in ChEMBL document CHEMBL3045195, “Comparison of the activity of non-steroidal ecdysone agonists between dipteran and lepidopteran insects, using cell-based EcR reporter assays” (Pest Manag Sci, 2010).
Calls of active or inactive are those of the source. The rule behind the calls is not given here.

Legend:
Ecdysone receptor [1] = target: T1, Ecdysone receptor (Drosophila melanogaster, UniProt P20153+P34021); assay: (§1) Agonist activity at ecdysone receptor in Drosophila melanogaster S2 cells after 24 hr by luciferase reporter gene assay; type: cell-based
T1 sequence (P34021 whole entry): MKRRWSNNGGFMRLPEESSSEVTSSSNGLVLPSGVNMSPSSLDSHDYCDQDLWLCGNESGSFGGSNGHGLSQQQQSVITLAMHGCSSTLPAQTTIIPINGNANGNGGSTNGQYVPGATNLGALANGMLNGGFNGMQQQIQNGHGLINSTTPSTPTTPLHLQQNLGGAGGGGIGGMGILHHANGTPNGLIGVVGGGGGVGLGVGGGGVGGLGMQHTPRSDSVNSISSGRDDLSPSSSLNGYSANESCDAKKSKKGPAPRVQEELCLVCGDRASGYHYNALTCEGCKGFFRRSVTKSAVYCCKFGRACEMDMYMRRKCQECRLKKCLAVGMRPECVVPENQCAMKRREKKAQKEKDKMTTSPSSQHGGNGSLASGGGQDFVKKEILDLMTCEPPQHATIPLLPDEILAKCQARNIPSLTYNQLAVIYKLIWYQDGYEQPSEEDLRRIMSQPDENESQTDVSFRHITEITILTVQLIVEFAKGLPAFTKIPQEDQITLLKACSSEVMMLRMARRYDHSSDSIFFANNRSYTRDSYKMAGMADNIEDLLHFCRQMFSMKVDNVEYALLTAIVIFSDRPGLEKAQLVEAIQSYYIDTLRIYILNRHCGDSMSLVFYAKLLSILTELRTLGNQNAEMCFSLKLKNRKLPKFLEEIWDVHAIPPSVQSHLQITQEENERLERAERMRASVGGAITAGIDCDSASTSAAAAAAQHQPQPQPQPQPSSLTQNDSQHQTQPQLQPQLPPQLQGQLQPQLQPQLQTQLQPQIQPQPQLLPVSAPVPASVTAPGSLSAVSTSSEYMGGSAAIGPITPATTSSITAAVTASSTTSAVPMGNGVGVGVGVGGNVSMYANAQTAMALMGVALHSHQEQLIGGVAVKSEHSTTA
T1 sequence (P20153 whole entry): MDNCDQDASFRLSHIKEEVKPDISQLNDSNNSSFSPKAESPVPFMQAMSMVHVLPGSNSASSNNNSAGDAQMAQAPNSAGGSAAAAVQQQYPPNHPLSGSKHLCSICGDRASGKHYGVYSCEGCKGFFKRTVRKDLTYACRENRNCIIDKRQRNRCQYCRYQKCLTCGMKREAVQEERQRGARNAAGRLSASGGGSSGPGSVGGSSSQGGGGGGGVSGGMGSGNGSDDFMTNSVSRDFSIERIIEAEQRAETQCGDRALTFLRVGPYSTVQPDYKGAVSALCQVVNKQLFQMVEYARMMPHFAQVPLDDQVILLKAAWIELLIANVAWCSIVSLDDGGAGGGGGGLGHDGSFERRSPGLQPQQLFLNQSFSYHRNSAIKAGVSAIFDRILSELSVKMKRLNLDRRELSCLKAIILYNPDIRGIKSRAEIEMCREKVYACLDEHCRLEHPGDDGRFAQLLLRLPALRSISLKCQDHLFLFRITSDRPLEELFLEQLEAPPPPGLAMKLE

Ecdysone receptor [2] = target: T2, Ecdysone receptor (Bombyx mori, UniProt P49881); assay: (§2) Agonist activity at ecdysone receptor in Bombyx mori Bm5 cells after 24 hr by luciferase reporter gene assay; type: cell-based
T2 sequence (P49881 whole entry): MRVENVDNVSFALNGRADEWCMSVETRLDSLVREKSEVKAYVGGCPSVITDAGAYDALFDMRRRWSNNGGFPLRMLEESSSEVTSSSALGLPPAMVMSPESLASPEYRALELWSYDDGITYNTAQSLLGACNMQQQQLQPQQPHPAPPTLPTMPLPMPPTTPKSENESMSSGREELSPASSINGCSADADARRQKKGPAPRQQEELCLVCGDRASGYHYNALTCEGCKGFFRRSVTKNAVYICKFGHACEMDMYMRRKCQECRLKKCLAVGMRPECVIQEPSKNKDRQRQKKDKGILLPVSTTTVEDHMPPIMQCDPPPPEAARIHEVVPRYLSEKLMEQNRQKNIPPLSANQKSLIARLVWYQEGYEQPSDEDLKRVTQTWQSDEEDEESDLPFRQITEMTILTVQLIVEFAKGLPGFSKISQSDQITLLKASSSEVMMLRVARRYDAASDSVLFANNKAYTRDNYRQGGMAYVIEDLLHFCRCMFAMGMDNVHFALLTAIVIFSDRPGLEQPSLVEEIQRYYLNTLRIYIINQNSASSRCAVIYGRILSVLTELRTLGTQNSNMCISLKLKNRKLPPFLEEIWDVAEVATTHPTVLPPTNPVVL

Ecdysone receptor [3] = target: T1, Ecdysone receptor; assay: Agonist activity at ecdysone receptor in Drosophila melanogaster B2 cells assessed as reduction in cell density
[4] = target: T3, Ecdysone receptor (Drosophila melanogaster) (UniProt P34021+P20153); assay: Agonist activity at ecdysone receptor in Drosophila melanogaster S2 cells at 100 uM after 24 hr by luciferase reporter gene assay relative to 20-hydroxyecdysone; type: cell-based
[5] = target: T3, Ecdysone receptor (Drosophila melanogaster); assay: Agonist activity at ecdysone receptor in Drosophila melanogaster S2 cells at 10 uM after 24 hr by luciferase reporter gene assay relative to 20-hydroxyecdysone; type: cell-based
Ecdysone receptor [6] = target: T1, Ecdysone receptor; assay: Agonist activity at ecdysone receptor in Drosophila melanogaster Kc cells after 24 hr by luciferase reporter gene assay
[7] = target: T3, Ecdysone receptor (Drosophila melanogaster); assay: as §1; type: cell-based
[8] = target: T4, Ecdysone receptor (Bombyx mori) (UniProt P49881); assay: as §2; type: cell-based
T4 sequence (whole entry): T2 sequence (P49881 whole entry)

[9] = Cytotoxicity against Drosophila melanogaster S2 cells at 10 to 100 uM after 24 hr by CellTiter assay; type: cell-based; settings: s2, 24 h
[10] = target: Ecdysone receptor (Aedes aegypti) (UniProt P49880+Q9GSG8); assay: Agonist activity at Aedes aegypti ecdysone receptor expressed in mammalian cells by reporter gene assay relative to control; type: cell-based
Ecdysone receptor [11] = target: T5, Ecdysone receptor (Aedes aegypti, UniProt P49880+Q9GSG8); assay: Agonist activity at Aedes aegypti ecdysone receptor expressed in mammalian cells by reporter gene assay; type: cell-based
T5 sequence (P49880 whole entry): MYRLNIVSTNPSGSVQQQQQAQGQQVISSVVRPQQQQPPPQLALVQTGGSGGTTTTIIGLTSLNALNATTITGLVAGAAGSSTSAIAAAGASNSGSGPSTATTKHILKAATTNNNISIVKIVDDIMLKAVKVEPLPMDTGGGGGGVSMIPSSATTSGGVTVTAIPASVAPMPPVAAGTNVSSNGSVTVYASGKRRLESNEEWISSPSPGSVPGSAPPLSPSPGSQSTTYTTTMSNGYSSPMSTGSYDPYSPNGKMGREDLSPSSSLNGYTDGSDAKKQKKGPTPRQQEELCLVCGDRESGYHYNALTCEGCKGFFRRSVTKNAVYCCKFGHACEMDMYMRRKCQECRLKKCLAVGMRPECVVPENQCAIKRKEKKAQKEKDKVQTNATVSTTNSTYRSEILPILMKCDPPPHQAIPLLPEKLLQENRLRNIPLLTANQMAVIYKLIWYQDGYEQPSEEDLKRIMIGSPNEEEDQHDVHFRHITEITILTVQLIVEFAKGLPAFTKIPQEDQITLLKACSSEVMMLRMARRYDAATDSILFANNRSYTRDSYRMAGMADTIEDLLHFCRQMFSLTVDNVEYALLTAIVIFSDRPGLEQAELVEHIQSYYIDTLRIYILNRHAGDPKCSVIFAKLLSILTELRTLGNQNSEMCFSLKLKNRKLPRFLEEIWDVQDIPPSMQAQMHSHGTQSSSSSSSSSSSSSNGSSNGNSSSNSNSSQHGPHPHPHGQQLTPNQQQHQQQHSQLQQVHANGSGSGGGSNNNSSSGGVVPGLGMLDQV
T5 sequence (Q9GSG8 whole entry): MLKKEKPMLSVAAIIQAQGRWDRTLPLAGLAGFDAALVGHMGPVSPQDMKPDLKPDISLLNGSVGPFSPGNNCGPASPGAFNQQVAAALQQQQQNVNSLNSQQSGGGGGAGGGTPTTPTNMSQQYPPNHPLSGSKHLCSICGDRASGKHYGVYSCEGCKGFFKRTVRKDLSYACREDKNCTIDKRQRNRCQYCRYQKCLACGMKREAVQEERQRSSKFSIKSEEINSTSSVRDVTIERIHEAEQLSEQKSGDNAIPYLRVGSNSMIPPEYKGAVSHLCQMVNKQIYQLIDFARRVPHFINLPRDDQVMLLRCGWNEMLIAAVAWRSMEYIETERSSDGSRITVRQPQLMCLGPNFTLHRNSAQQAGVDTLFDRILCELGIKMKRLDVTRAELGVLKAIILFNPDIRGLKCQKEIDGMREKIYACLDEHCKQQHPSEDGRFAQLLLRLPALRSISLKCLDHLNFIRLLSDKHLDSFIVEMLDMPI

Row | SMILES | EC50 (Ecdysone receptor [1]) | EC50 (Ecdysone receptor [2]) | EC50 (Ecdysone receptor [3]) | Efficacy [4] | further results
1 | CC(C)(C)N(NC(=O)c1ccccc1)C(=O)c1ccccc1F | 72400 nM | 309 nM | 6170 nM | 62% | 
2 | Cc1ccccc1C(=O)N(NC(=O)c1ccccc1)C(C)(C)C | 120000 nM | 224 nM | 3800 nM | 45% | 
3 | CC(C)(C)N(NC(=O)c1ccccc1)C(=O)c1ccccc1[N+](=O)[O-] | 15500 nM | 224 nM | 1100 nM | 86% | 
4 | CCc1ccc(C(=O)NC2(C(=O)c3cc(C)cc(C)c3)CCCCC2)cc1 | > 10000 nM |  |  |  | Efficacy [5]: 4%
5 | CC(C)(C)N(NC(=O)c1ccc(-c2ccccc2)cc1)C(=O)c1ccccc1Cl |  |  |  |  | EC50 (Ecdysone receptor [6]): > 100000 nM
6 | CCc1ccc(C(=O)NN(C(=O)c2ccccc2Cl)C(C)(C)C)cc1 | 15500 nM | 5.75 nM | 219 nM | 71% | 
7 | Cc1ccc(N(C(=O)c2ccc(Cl)cc2)C2CC(C)N(C(=O)c3ccc(Cl)cc3)c3ccc(C)cc32)cc1 (stereo not drawn) |  |  |  |  | pEC50 [7]: inactive; pEC50 [8]: inactive
8 | CCc1ccc(C(=O)NN(C(=O)c2cc(C)cc(C)c2)C(C)(C)C)cc1 [TEBUFENOZIDE] | 6610 nM | 1.23 nM | 525 nM |  | Efficacy [5]: 52%; Activity [9]: Non-toxic
9 | CC(C)(C)N(NC(=O)c1ccccc1)C(=O)c1ccccc1Cl | 8510 nM | 75.9 nM |  |  | Efficacy [5]: 57%
10 | Cc1ccc(NC2CCN(C(=O)c3ccc(Cl)cc3)c3ccccc32)cc1 (stereo not drawn) |  |  |  |  | pEC50 [7]: inactive; pEC50 [8]: inactive
11 | Cc1ccc(NC2CCN(C(=O)c3ccc(Cl)cc3)CC2)cc1 |  |  |  |  | pEC50 [7]: inactive; pEC50 [8]: inactive
12 | CC(C)(C)N(NC(=O)c1ccccc1)C(=O)c1ccccc1C(F)(F)F | 33900 nM | 631 nM | 3630 nM | 63% | 
13 | CCCc1ccc(C(=O)NN(C(=O)c2ccccc2Cl)C(C)(C)C)cc1 | 9770 nM | 9.12 nM |  |  | Efficacy [5]: 52%
14 | CC1CC(Nc2ccc(F)cc2)c2cc(F)ccc2N1C(=O)c1ccc(Cl)cc1 (stereo not drawn) | > 100000 nM |  |  | 12% | Efficacy [10]: 70%; EC50 (Ecdysone receptor [11]): 646 nM
15 | Cc1ccc(NC2CC(C)N(C(=O)c3ccc(C(C)(C)C)cc3)c3ccc(C)cc32)cc1 (stereo not drawn) |  |  |  |  | pEC50 [7]: inactive; pEC50 [8]: inactive
16 | CC(C)(C)N(NC(=O)c1ccccc1)C(=O)c1ccccc1Br | 81300 nM | 170 nM | 794 nM | 55% | 
17 | CC1CCc2ccccc2N1C(=O)c1ccc(Cl)cc1 (stereo not drawn) |  |  |  |  | pEC50 [7]: inactive; pEC50 [8]: inactive
18 | CC(C)(C)N(NC(=O)c1ccccc1)C(=O)c1ccccc1I | 91200 nM | 105 nM | 1200 nM | 52% | 
19 | CC(C)(C)N(NC(=O)c1ccccc1Cl)C(=O)c1ccccc1Cl | 105000 nM | 331 nM | 2570 nM | 48% | 
20 | CC(C)(C)N(NC(=O)c1ccccc1)C(=O)c1ccccc1 [RH-5849] | 37200 nM | 427 nM | 1820 nM | 62% | Activity [9]: Non-toxic
21 | COc1ccccc1C(=O)N(NC(=O)c1ccccc1)C(C)(C)C | 120000 nM | 525 nM | 3800 nM | 44% | 
22 | Cc1ccc(C(=O)NN(C(=O)c2ccccc2Cl)C(C)(C)C)cc1 | 3240 nM | 18.6 nM | 219 nM | 79% | 
23 | CC(C)(C)N(NC(=O)c1ccccc1)C(=O)C1CCCCC1 |  | 46800 nM |  |  | pEC50 [7]: inactive
24 | Cc1ccc(C(=O)NN(C(=O)c2cc(C)cc(C)c2)C(C)(C)C)cc1 | 11200 nM | 12 nM |  |  | Efficacy [5]: 46%
25 | CCCCCCCC(=O)NN(C(=O)c1cc(C)cc(C)c1)C(C)(C)C |  | 97.7 nM |  |  | pEC50 [7]: inactive
26 | CC(C)(C)N(NC(=O)c1cccc(Cl)c1)C(=O)c1ccccc1Cl | 16600 nM | 155 nM | 1200 nM | 80% | 
27 | Cc1cc(C)cc(C(=O)N(NC(=O)c2ccc(Cl)cc2)C(C)(C)C)c1 | 16600 nM | 19.1 nM |  |  | Efficacy [5]: 42%
28 | CC(C)(C)N(NC(=O)c1ccc(Cl)cc1)C(=O)c1ccccc1 [HALOFENOZIDE] | 7760 nM | 87.1 nM |  | 57% | Activity [9]: Non-toxic
29 | CCCCCCC(=O)N(NC(=O)c1ccccc1)C(C)(C)C |  | 7240 nM |  |  | pEC50 [7]: inactive
